Results from US10800766B2, “Quinoline alkenes as cytoprotective agents” (priority 2015, dated 2020).

Key:
CSM14.1 neuronal cells = assay: Cell survival assay (thapsigargin-induced cell death, CELLTITER-GLO luminescence); assay type: cell-based; conditions: CSM14.1 cells, compound 2 hrs before about 15 μM thapsigargin, overnight (about 16 to 24 hrs), cell viability
Experimental: CSM14.1 neuronal cells were maintained in Complete Medium at 32° C.; wherein the Complete Medium contained Dulbecco's modified eagle medium (DMEM) with 10% fetal bovine serum (FSB), 1% L-glutamine, 100 IU/mL penicillin, and 100 μg/mL streptomycin. The cells were recovered from cultures by trypsinization and then seeded in 384 well plates (Greiner #781098) at a concentration of 1,000 cells/well in 20 μL of DMEM Assay Medium, wherein the DMEM Assay Medium contained 2% FBS, 100 IU/mL penicillin, and 100 μg/mL streptomycin. Seeding was performed using a MultiDrop Combi reagent broadcaster. The plates were incubated overnight at 32° C. A test compound was prepared by 2-fold serial dilution in 100% DMSO using a BIOMEK® 2000 liquid handler (Beckman Coulter). A dose-response curve containing 10 concentrations of the test compound was obtained. Using a BIOMEK® FX liquid handler (Beckman Coulter), 2.5 μL of the test compound was transferred from the 100% DMSO serial dilution plate to an intermediate plate containing 47.5 μL of DMEM Assay Medium containing 2% FBS, 100 IU/mL penicillin, and 100 μg/mL streptomycin and mixed. To reduce or eliminate the interference from the compound's precipitation, 6 μL of the diluted compound was immediately transferred to the assay plate to achieve a high compound concentration of 100 μM in 99% DMEM Assay Medium and 1% DMSO. After the assay plates were incubated for 2 hrs, 4 μL of 112.5 μM thapsigargin (TG) (DMSO stock diluted into Assay TC Medium) was dispensed into each testing well with a MultiDrop Combi reagent broadcaster for a final concentration of about 15 μM TG. The tissue culture media (4 μL) containing vehicle only was transferred manually to each control cell using a 16 channel electronic pipette. After the plates were incubated overnight (about 16 to 24 hrs), CELLTITER-GLO® (Promega) (16 μL) was added to all wells and luminescence was measured. High luminescence indicates cell survival. The biological results are summarized in Table 1 where A represents a cell viability EC50 less than 1 μM and B represents a value greater than 1 μM and less than 10 μM.

[1] = test system: Human embryonic kidney (HEK293) cells; Mouse neuroblastoma (N2a) cells; assay: Cell rescue assay: protection against thapsigargin (TG)-induced cell-death (ALAMARBLUE); assay type: cell-based; conditions: compound 20 μM, 2 hrs before thapsigargin (15 μM for HEK293 cells, 1 μM for N2a cells), 24 hrs; viability as % RFU compared to control
Experimental: Protection against Thapsigargin (TG)-induced Cell-death. Human embryonic kidney (HEK293) cells were grown in Dulbecco's Modified Eagle's Medium (DMEM) with 10% FBS and 1% antibiotic antimycotic solution (ABAM). Mouse neuroblastoma (N2a) cells were grown in 1:1 DMEM:OPTI-MEM® with 5% FBS and 1% ABAM. All cells were grown in 10% CO2 in a humidified environment of the incubator. Cells grown in 96-well plates were exposed to a test compound (20 μM) for 2 hrs before addition of thapsigargin (15 μM for HEK293 cells and 1 μM for N2a cells) to induce ER stress. After incubation in cell-culture incubator for 24 hrs, ALAMARBLUE® regent (10% v/v) was added to the wells. Fluorescence reading was taken 2 hrs after the addition of the ALAMARBLUE® regent. Cell-viability was calculated as a percentage of relative fluorescence unit (RFU) compared to control. […] The biological results are summarized in Table 2, where each compound was tested at 20 μM and where A represents a viability greater than 50%, B represents a viability greater than 10% and less than 50%, C represents a value below 10%.

Human SH-SY5Y cells = assay: Cell rescue assay: protection against β-amyloid-induced cell toxicity; assay type: cell-based; conditions: 7.5 uM compound, AB1-42 at 10 uM, 4 days, OD at 490 nm
Experimental: Protection against β-amyloid-induced cell toxicity. Chonpathompikunlert et al. Eu. J. Pharmacol. 2011, 650, 544-549. Human SH-SY5Y cells are suspended in media containing 2% FBS and 2× Gentamicin. Transfer 100 ul/well culture to 96-well plate (20,000 cells/well; passage #5) and incubate overnight. Prepare compound samples at 30 uM. Add 50 ul of the samples to the cells [[…]] and incubate 3 hours. Make stock of 40 uM AB1-42 peptide in assay media. Transfer 50 ul/well to cells/compounds in assay plate. The final assay volume is 200 ul/well, containing 2% FBS, 2× Gentamicin, 7.5 uM compound and AB1-42 at 10 uM. Incubate for 4 days then add 20 ul of Promega Substrate Cell Titer 96 Aqueous One Solution Reagent to each well. Incubate 37° C. and read OD at 490 nm. The results are summarized in Table 3, where A represents a value greater than 50% cell rescue, B represents a value greater than 10% and less than 50% cell rescue, and C represents a value greater than 1% and less than 10% cell rescue.

[2] = target: T1, SERCA (microsomal preparations from HEK 293 cells) (Homo sapiens, UniProt P16615); assay: Ca-ATPase assay (NADH-linked, enzyme-coupled ATPase assay); assay type: biochemical; conditions: ATP hydrolysis rate over a range of calcium concentrations, Vmax by fit to Hill function, relative to controls
T1 construct: endogenous in cells; host or cells: HEK 293 cells (microsomal preparation)
Experimental: A Ca-ATPase assay was performed using microsomal preparations from HEK 293 cells at a series of calcium concentrations corresponding to the physiological range, relative to controls. The ATP hydrolysis rate was measured over a range of calcium concentrations in the presence of test compounds using an NADH-linked, enzyme-coupled ATPase assay adapted for 96-well microplates, with Vmax determined by fitting the ATPase calcium-dependence to the Hill function. Each well contained 2 μg or 7 μg of SR vesicles (optimized for skeletal or cardiac SR, respectively), 50 mM MOPS (pH 7.0), 100 mM KCl, 5 mM MgCl2, 1 mM EGTA, 0.2 mM NADH, 1 mM phosphoenol pyruvate, 5 IU pyruvate kinase, 5 IU lactate dehydrogenase, and 3.5 μg/mL A23187 (a calcium ionophore). CaCl2 was added to set free [Ca^2+] to the specific values. The assay was started upon addition of ATP at a final concentration of 5 mM, and read in a SpectraMax Plus microplate spectrophotometer. The results are summarized in Table 4, where A represents an increase in SERCA Vmax greater than 50% and B represents a value greater than 10% and less than 50%.

Ob/ob mice = assay: Effect of a SERCA agonist on the level of blood glucose; assay type: in vivo, mouse; conditions: 50 mg/kg i.p. once a day for 5 days, fasting glucose at baseline and 4 days after administration
Experimental: Ob/ob mice (10 weeks old, n=7) were intraperitoneally (i.p.) injected with 100 μL of a solution containing 0 (vehicle) or 50 mg/kg of a test compound once a day for a total of 5 days. Fasting glucose was measured at baseline and 4 days after the administration of the test compound. Glucose levels were measured in blood samples drawn from the tail vein using a handheld glucose sensor. Compound effects on blood glucose are shown in Table 5 where A represents a 10-20% reduction in blood glucose, B represents a 21-30% reduction in blood glucose, and C represents a greater than 30% reduction in blood glucose levels.

T1 sequence (P16615 whole entry): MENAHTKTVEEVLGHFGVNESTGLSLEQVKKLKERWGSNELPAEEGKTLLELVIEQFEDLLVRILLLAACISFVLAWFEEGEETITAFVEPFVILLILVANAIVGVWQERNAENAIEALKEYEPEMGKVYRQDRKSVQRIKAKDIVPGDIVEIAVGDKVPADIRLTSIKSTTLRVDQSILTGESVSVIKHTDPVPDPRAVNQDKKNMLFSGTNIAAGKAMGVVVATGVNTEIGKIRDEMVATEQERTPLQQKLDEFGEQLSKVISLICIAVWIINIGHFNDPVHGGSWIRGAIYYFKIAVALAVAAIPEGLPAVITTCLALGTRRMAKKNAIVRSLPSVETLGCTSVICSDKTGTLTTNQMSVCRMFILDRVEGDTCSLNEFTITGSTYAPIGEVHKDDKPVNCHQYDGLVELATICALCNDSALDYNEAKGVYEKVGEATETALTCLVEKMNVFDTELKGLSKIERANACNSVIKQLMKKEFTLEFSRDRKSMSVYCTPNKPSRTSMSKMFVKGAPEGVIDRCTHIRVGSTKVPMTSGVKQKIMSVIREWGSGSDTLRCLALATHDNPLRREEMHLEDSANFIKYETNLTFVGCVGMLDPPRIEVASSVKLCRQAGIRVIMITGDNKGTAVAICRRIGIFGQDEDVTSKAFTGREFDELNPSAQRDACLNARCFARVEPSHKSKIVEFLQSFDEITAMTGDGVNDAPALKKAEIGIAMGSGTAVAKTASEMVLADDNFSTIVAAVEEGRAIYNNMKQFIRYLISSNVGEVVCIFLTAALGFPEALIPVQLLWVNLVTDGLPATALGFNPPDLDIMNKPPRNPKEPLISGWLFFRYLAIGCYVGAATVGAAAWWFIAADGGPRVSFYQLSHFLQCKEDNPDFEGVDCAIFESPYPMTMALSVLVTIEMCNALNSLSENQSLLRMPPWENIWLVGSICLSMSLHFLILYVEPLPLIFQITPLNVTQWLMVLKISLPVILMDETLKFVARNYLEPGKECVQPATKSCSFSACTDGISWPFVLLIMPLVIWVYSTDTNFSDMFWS

| SMILES | EC50 (CSM14.1 neuronal cells) | Cell Survival % [1] | Cell Survival % (cell rescue) (Human SH-SY5Y cells) | SERCA Vmax Increase [2] | Glucose level reduction (Ob/ob mice) |
| --- | --- | --- | --- | --- | --- |
| Cc1ccc2cccc(/C=C/c3ccc(OC(C)C)cc3)c2n1 [A1, (E)-8-(4-Isopropoxystyryl)-2-methylquinoline] | < 1000 nM | A (A represents a viability greater than 50%) | A (A represents a value greater than 50% cell rescue) | A (A represents an increase in SERCA Vmax greater than 50%) | C (C represents a greater than 30% reduction in blood glucose levels) |
| Cc1ccc2cccc(/C=C/c3cc(Br)cs3)c2n1 [A2, (E)-8-(2-(4-Bromothiophen-2-yl)vinyl)-2-methylquinoline] | < 1000 nM | A (A represents a viability greater than 50%) | B (B represents a value greater than 10% and less than 50% cell rescue) | A (A represents an increase in SERCA Vmax greater than 50%) | B (B represents a 21-30% reduction in blood glucose) |
| Cc1ccc2cccc(/C=C/c3ccc(Br)s3)c2n1 [A3, (E)-8-(2-(5-Bromothiophen-2-yl)vinyl)-2-methylquinoline] | 1000 to 10000 nM | B (B represents a viability greater than 10% and less than 50%) | C (C represents a value greater than 1% and less than 10% cell rescue) | A (A represents an increase in SERCA Vmax greater than 50%) | B (B represents a 21-30% reduction in blood glucose) |
| Cc1ccc2cccc(/C=C/c3ccc(Cl)cc3)c2n1 [A4, (E)-8-(4-Chlorostyryl)-2-methylquinoline] | < 1000 nM | C (C represents a value below 10%) | B (B represents a value greater than 10% and less than 50% cell rescue) | B (B represents a value greater than 10% and less than 50%) | A (A represents a 10-20% reduction in blood glucose) |
| Cc1ccc2cccc(/C=C/c3cccc(C(F)(F)F)c3)c2n1 [A5, (E)-8-(3-(Trifluoromethyl)styryl)-2-methylquinoline] | 1000 to 10000 nM | B (B represents a viability greater than 10% and less than 50%) | B (B represents a value greater than 10% and less than 50% cell rescue) | A (A represents an increase in SERCA Vmax greater than 50%) | B (B represents a 21-30% reduction in blood glucose) |
| Cc1ccc2cccc(/C=C/c3cccc(F)c3)c2n1 [A6, (E)-8-(3-Fluorostyryl)-2-methylquinoline] | 1000 to 10000 nM | B (B represents a viability greater than 10% and less than 50%) | A (A represents a value greater than 50% cell rescue) | B (B represents a value greater than 10% and less than 50%) | A (A represents a 10-20% reduction in blood glucose) |
